Assays:
[1] = system: Glo-Response ARE-luc2P HEK293 cell line; experiment: ARE luciferase reporter cell-based assay; conditions: average of results obtained;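 also: luciferase signal tracks Nrf2 activation of the ARE once compounds disrupt KEAP1-Nrf2 binding, read with One-Glo reagent, DMSO serving as low control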
[2] = target: Kelch domain of human KEAP1 (321-624 aa) (Homo sapiens (Human), UniProt Q14145); experiment: KEAP1 KELCH ThermoFluor binding assay; conditions: KEAP Kelch […], 1,8-ANS, pH 7.0, average of results obtained, read-out: Tf Kd;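 also: Ligand-induced melting temperature shift of E. coli-expressed KEAP1 Kelch protein, Kd estimated from concentration-response curves of ΔTm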
Chain of Kelch domain of human KEAP1 (321-624 aa) (Q14145 321-624): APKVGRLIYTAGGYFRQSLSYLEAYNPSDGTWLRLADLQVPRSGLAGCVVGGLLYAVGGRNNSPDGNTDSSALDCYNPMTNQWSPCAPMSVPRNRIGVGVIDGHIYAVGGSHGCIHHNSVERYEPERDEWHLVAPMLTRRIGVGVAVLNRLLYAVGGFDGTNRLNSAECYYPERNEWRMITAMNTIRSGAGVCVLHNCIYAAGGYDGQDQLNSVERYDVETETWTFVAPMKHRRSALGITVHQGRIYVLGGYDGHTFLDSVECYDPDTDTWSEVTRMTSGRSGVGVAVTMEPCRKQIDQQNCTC

SMILES | EC50 ([1]; 24 hours) | Kd [2] | EC50 ([1]; Homo sapiens, HEK293, 24 h)
Cc1ccc([C@H](CC(=O)O)c2ccc3c(nnn3C)c2C(F)F)cc1CN1CC2CCCN2c2ncccc2S1(=O)=O (single isomer, unassigned) [Example 72, (*S)-3-(4-(Difluoromethyl-1-methyl-1H-benzo[d][1,2,3]triazol-5-yl)-3-(3-(((R-5,5-dioxido-7a,8,9,10-tetrahydropyridi[2,3-f]pyrrolo[2,1-d][1,2,5]thiadiazepin-6(7H)-yl)methyl)-4-methylphenyl)propanoic Acid] | 1970 nM | 5.4 nM | 
Cc1ccc([C@H](CC(=O)O)c2ccn3c(C(F)(F)F)nnc3c2C)cc1CN1CC2(COC2)Oc2ccccc2S1(=O)=O (single isomer, unassigned) [Example 26, (*S)-3-(3-((1,1-Dioxidospiro[benzo[b][1,4,5]oxathiazepine-4,3′-oxetan]-2(3H)-yl)methyl)-4-methylphenyl)-3-(8-methyl-3-(trifluoromethyl)-[1,2,4]triazolo[4,3-a]pyridin-7-yl)propanoic Acid] |  | 0.174 nM | 32 nM
COc1ccc2c(n1)OC1(CCOCC1)CN(Cc1cc([C@H](c3ccn4c(C(F)F)nnc4c3C)C(C)(C)C(=O)O)ccc1C)S2(=O)=O (single isomer, unassigned) [Example 583, (*R)-3-(3-(Difluoromethyl)-8-methyl-[1,2,4]triazolo[4,3-a]pyridin-7-yl)-3-(3-((7′-methoxy-1′,1′-dioxido-2,3,5,6-tetrahydrospiro[pyran-4,4′-pyrido[2,3-b][1,4,5]oxathiazepin]-2′(3′H)-yl)methyl)-4-methylphenyl)-2,2-dimethylpropanoic Acid] |  | 1610 nM | 766 nM
Cc1ccc([C@@H](CC(=O)O)c2ccc3c(nnn3CC3CC3)c2C)cc1CN1C[C@]2(C)CCCN2c2ncccc2S1(=O)=O (relative stereo) [Example 11, 3-(1-(Cyclopropylmethyl)-4-methyl-1H-benzo[d][1,2,3]triazol-5-yl)-3-(4-methyl-3-(((*S)-7a-methyl-5,5-dioxido-7a,8,9,10-tetrahydropyrido[2,3-f]pyrrolo[2,1-d][1,2,5]thiadiazepin-6(7H)-yl)methyl)phenyl)propanoic Acid] |  | 0.024 nM | 4.2 nM
Cc1ccc([C@@H](c2ccn3c(C(F)(F)F)nnc3c2C)C(C)(C)C(=O)O)cc1CN1CC2(CCOCC2)Oc2nc(N[C@H](C)CCO)ccc2S1(=O)=O (single isomer, unassigned) [Example 119, (*S)-3-(3-((7′-(((R)-4-Hydroxybutan-2-yl)amino)-1′,1′-dioxido-2,3,5,6-tetrahydrospiro[pyran-4,4′-pyrido[2,3-b][1,4,5]oxathiazepin]-2′(3′H)-yl)methyl)-4-methylphenyl)-2,2-dimethyl-3-(8-methyl-3-(trifluoromethyl)-[1,2,4[triazolo[4,3-a]pyridine-7-yl)propanoic Acid] |  | < 1 nM | 166 nM
Cc1ccc([C@@H](CC(=O)O)c2ccc3c(nnn3C3CC3)c2C)cc1CN1C[C@H]2CCCCN2c2ncccc2S1(=O)=O (single isomer, unassigned) [Example 213, (*R)-3-(1-Cyclopropyl-4-methyl-1H-benzo[d][1,2,3]triazol-5-yl)-3-(3-(((*R)-5,5-dioxido-7,7a,8,9,10,11-hexahydro-6H-dipyrido[2,1-d:2′,3′-f][1,2,5]thiadiazepin-6-yl)methyl)-4-methylphenyl)propanoic Acid] |  | < 1 nM | 8 nM
Cc1ccc(C(CC(=O)O)c2ccn3c(C(F)(F)F)nnc3c2C)cc1CN1CC(C)(C)Oc2ncccc2S1(=O)=O (centres unmarked) [Example 268, 3-(3-((4,4-Dimethyl-1,1-dioxido-3,4-dihydro-2H-pyrido[2,3-b][1,4,5]oxathiazepin-2-yl)methyl)-4-methylphenyl)-3-(8-methyl-3-(trifluoromethyl)-[1,2,4]triazolo[4,3-a]pyridin-7-yl)propanoic Acid] |  | < 1 nM | 516 nM
Cc1ccc([C@H](CC(=O)O)c2ccn3c(C(F)(F)F)nnc3c2C)cc1CN1C[C@H]2CCCN2c2ncccc2S1(=O)=O (single isomer, unassigned) [Example 389, (*S)-3-(3-(((R)-5,5-Dioxido-7a,8,9,10-tetrahydropyrido[2,3-f]pyrrolo[2,1-d][1,2,5]thiadiazepin-6(7H)-yl)methyl)-4-methylphenyl)-3-(8-methyl-3-(trifluoromethyl)-[1,2,4]triazolo[4,3-a]pyridin-7-yl)propanoic Acid] |  | < 1 nM | 12.1 nM
Cc1ccc([C@@H](CC(=O)O)c2ccn3c(C(F)(F)F)nnc3c2C)cc1CN1C[C@]2(C)CCCN2c2ncccc2S1(=O)=O (single isomer, unassigned) [Example 187, (*R)-3-(4-Methyl-3-(((*S)-7a-methyl-5,5-dioxido-7a,8,9,10-tetrahydropyrido[2,3-f]pyrrolo[2,1-d][1,2,5]thiadiazepin-6(7H)-yl)methyl)phenyl)-3-(8-methyl-3-(trifluoromethyl)-[1,2,4]triazolo[4,3-a]pyridin-7-yl)propanoic Acid] |  | < 1 nM | 550 nM
Cc1ccc(C(CC(=O)O)c2ccn3c(C(F)(F)F)nnc3c2C)cc1CN1CC2(COC2)Oc2ncccc2S1(=O)=O (centres unmarked) [Example 259, 3-(3-((1′,1′-Dioxidospiro[oxetane-3,4′-pyrido[2,3-b][1,4,5]oxathiazepin]-2′(3′H)-yl)methyl)-4-methylphenyl)-3-(8-methyl-3-(trifluoromethyl)-[1,2,4]triazolo[4,3-a]pyridin-7-yl)propanoic Acid] |  | < 1 nM | 201 nM
Cc1ccc(C(c2ccn3c(C(F)(F)F)nnc3c2C)C(C)(C)C(=O)O)cc1CN1CC2(CCOCC2)Oc2nc(OCCCO)ccc2S1(=O)=O (centres unmarked) [Example 49, 3-(3-((7′-(3-Hydroxypropoxy)-1′,1′-dioxido-2,3,5,6-tetrahydrospiro[pyran-4,4′-pyrido[2,3-b][1,4,5]oxathiazepin]-2′(3′H)-yl)methyl)-4-methylphenyl-2,2′-dimethyl-3-(8-methyl-3-trifluoromethyl)-[1,2,4]triazolo[4,3-a]pyridine-7-yl)propanoic Acid] |  | < 1 nM | 71.9 nM
Cc1ccc(C(CC(=O)O)c2ccn3c(C(F)(F)F)nnc3c2C)cc1CN1CC2CCC(F)(F)CN2c2ncccc2S1(=O)=O (centres unmarked) [Example 452, 3-(3-((10,10-Difluoro-5,5-dioxido-7,7a,8,9,10,11-hexahydro-6H-dipyrido[2,1-d:2′,3′-f][1,2,5]thiadiazepin-6-yl)methyl)-4-methylphenyl)-3-(8-methyl-3-(trifluoromethyl)-[1,2,4]triazolo[4,3-a]pyridin-7-yl)propanoic Acid] |  | < 1 nM | 116 nM
Cc1ccc([C@@H](c2ccn3c(C(F)(F)F)nnc3c2C)C(C)(C)C(=O)O)cc1CN1CC2(CC2)Oc2nc(OCCN3CC(F)C3)c(C)cc2S1(=O)=O (single isomer, unassigned) [Example 596, (*S)-3-(3-((7′-(2-(3-fluoroazetidin-1-yl)ethoxy)-8′-methyl-1′,1′-dioxidospiro[cyclopropane-1,4′-pyrido[2,3-b][1,4,5]oxathiazepin]-2′(3′H)-yl)methyl)-4-methylphenyl)-2,2-dimethyl-3-(8-methyl-3-(trifluoromethyl)-[1,2,4]triazolo[4,3-a]pyridine-7-yl)propanoic Acid] |  | < 1 nM | 3.08 nM

Reference: patent US10947252B2, “Inhibitors of KEAP1-Nrf2 protein-protein interaction” (Janssen Pharmaceutica NV, priority 2018, dated 2021)
